Measured values: patent US20250051338A1, “TYK2 DEGRADERS AND USES THEREOF” (Kymera Therapeutics, Inc., priority 2021, published 2025)

Legend:
Format in all cases: cell-based
TYK2 [1] = biological target: T1, TYK2 (Homo sapiens, UniProt P29597); experiment: TYK2 degradation MSD assay in EBV-B cells; parameters: endogenous in cells; host or cells: EBV-B cells; details: 4 to 24 hours incubation, read-out: TYK2 MSD DC50 rating in EBV-B
How it was run: (§1)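 TYK2 levels in lysed cells, detected via antibody capture and SULFO-TAG electrochemiluminescence, were compared across a nine-point threefold compound dilution (highest 1 to 10 μM) after 4–24 h culture at 37° C under 5% CO2. Four-parameter nonlinear regression of the dose response yielded DC50.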

TYK2 [2] = biological target: T1, TYK2; experiment: TYK2 degradation MSD assay in human PBMC cells; parameters: endogenous in cells; host or cells: human PBMC; details: 4 to 24 hours incubation, read-out: TYK2 MSD DC50 rating in human PBMC
How it was run: as §1

TYK2 [3] = biological target: T1, TYK2; experiment: TYK2 degradation MSD assay in OCI-LY10 cells; parameters: endogenous in cells; host or cells: EBV-B cells; details: 4 to 24 hours incubation, read-out: TYK2 MSD DC50 rating in OCI-LY10
How it was run: as §1

T1 sequence (P29597 whole entry): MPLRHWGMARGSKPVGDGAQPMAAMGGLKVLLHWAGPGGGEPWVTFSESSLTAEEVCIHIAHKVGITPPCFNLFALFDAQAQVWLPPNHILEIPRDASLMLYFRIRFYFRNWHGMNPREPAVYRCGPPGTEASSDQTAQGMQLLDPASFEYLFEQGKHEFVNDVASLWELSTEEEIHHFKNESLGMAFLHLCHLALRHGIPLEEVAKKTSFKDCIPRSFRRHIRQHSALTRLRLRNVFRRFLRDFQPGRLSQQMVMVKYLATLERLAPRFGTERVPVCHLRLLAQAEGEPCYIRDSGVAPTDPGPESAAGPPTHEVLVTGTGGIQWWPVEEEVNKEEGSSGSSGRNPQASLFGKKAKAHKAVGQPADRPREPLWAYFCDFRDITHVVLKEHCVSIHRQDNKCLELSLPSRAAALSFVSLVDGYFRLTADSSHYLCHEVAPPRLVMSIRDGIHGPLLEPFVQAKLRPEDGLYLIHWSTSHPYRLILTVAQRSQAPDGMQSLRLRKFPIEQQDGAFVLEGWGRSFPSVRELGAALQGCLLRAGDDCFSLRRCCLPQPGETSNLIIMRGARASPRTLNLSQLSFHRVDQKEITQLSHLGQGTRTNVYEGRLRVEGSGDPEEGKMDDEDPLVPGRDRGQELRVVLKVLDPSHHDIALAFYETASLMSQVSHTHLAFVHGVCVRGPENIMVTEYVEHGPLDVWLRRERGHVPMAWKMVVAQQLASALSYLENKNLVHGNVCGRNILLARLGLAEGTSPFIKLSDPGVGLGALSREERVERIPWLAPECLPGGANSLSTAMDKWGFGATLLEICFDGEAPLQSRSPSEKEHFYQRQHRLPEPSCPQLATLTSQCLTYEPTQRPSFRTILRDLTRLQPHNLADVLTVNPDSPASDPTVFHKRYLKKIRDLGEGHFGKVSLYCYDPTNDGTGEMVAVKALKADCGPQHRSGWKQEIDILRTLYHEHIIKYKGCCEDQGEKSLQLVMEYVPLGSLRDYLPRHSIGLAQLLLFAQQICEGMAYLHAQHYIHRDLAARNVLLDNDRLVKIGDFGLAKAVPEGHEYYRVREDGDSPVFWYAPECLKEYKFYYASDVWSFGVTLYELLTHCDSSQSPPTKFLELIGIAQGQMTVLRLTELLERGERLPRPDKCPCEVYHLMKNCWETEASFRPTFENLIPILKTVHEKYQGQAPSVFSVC

| SMILES | DC50 (TYK2 [1]) | DC50 (TYK2 [2]) | DC50 (TYK2 [3]) |
| --- | --- | --- | --- |
| CNc1cc(Nc2cccn(-c3cccc(C(=O)NCCCCc4ccc5c(c4)n(C)c(=O)n5C4CCC(=O)NC4=O)c3)c2=O)nn2c(C(=O)N[C@@H]3C[C@@H]3F)cnc12 (stereo partly drawn) [Example K219] | > 100 nM | 1 to 10 nM | > 100 nM |
| CNc1cc(Nc2cccn(-c3cccc(C(=O)NCCCCc4cccc5c4n(C)c(=O)n5C4CCC(=O)NC4=O)c3)c2=O)nn2c(C(=O)N[C@@H]3C[C@@H]3F)cnc12 (stereo partly drawn) [Example K220] | > 100 nM | > 100 nM | > 100 nM |
| CNc1cc(Nc2cccn(-c3cccc(C(=O)NCCCCCCc4ccc5c(c4)n(C)c(=O)n5C4CCC(=O)NC4=O)c3)c2=O)nn2c(C(=O)N[C@@H]3C[C@@H]3F)cnc12 (stereo partly drawn) [Example K221] | > 100 nM | > 100 nM | > 100 nM |
| CNc1cc(Nc2cccn(-c3cccc(C(=O)NCCCCCCc4cccc5c4n(C)c(=O)n5C4CCC(=O)NC4=O)c3)c2=O)nn2c(C(=O)N[C@@H]3C[C@@H]3F)cnc12 (stereo partly drawn) [Example K222] | > 100 nM | 1 to 10 nM | > 100 nM |
| CNc1cc(Nc2cccn(-c3cccc(C(=O)NCCCCCCCCc4ccc5c(c4)n(C)c(=O)n5C4CCC(=O)NC4=O)c3)c2=O)nn2c(C(=O)N[C@@H]3C[C@@H]3F)cnc12 (stereo partly drawn) [Example K223] | > 100 nM | 1 to 10 nM | > 100 nM |
| CNc1cc(Nc2cccn(-c3cccc(C(=O)NCCCCCCCCc4cccc5c4n(C)c(=O)n5C4CCC(=O)NC4=O)c3)c2=O)nn2c(C(=O)N[C@@H]3C[C@@H]3F)cnc12 (stereo partly drawn) [Example K224] | > 100 nM | 10 to 100 nM | > 100 nM |
| CNc1cc(Nc2cccn(-c3cccc(C(=O)NCCCCCCCCCCc4ccc5c(c4)n(C)c(=O)n5C4CCC(=O)NC4=O)c3)c2=O)nn2c(C(=O)N[C@@H]3C[C@@H]3F)cnc12 (stereo partly drawn) [Example K225] | > 100 nM | 1 to 10 nM | > 100 nM |
| CNc1cc(Nc2cccn(-c3cccc(C(=O)NCCCCCCCCCCc4cccc5c4n(C)c(=O)n5C4CCC(=O)NC4=O)c3)c2=O)nn2c(C(=O)N[C@@H]3C[C@@H]3F)cnc12 (stereo partly drawn) [Example K226] | > 100 nM | 10 to 100 nM | > 100 nM |
| CNc1cc(Nc2cccn(-c3cccc(C(=O)NCCCCc4ccc5c(c4)n(C)c(=O)n5C4CCC(=O)NC4=O)c3)c2=O)nn2c(C(=O)N[C@@H]3C[C@@H]3F)cnc12 (stereo partly drawn) [Example K227] | > 100 nM | > 100 nM | > 100 nM |
| CNc1cc(Nc2cccn(-c3cc(C(=O)NCCCCc4cccc5c4n(C)c(=O)n5C4CCC(=O)NC4=O)ccn3)c2=O)nn2c(C(=O)N[C@@H]3C[C@@H]3F)cnc12 (stereo partly drawn) [Example K228] | > 100 nM | 1 to 10 nM | > 100 nM |
| CNc1cc(Nc2cccn(-c3cc(C(=O)NCCCCCCc4ccc5c(c4)n(C)c(=O)n5C4CCC(=O)NC4=O)ccn3)c2=O)nn2c(C(=O)N[C@@H]3C[C@@H]3F)cnc12 (stereo partly drawn) [Example K229] | > 100 nM | < 1 nM | > 100 nM |
| CNc1cc(Nc2cccn(-c3cc(C(=O)NCCCCCCc4cccc5c4n(C)c(=O)n5C4CCC(=O)NC4=O)ccn3)c2=O)nn2c(C(=O)N[C@@H]3C[C@@H]3F)cnc12 (stereo partly drawn) [Example K230] | > 100 nM | 1 to 10 nM | > 100 nM |
| CNc1cc(Nc2cccn(-c3cc(C(=O)NCCCCCCCCc4ccc5c(c4)n(C)c(=O)n5C4CCC(=O)NC4=O)ccn3)c2=O)nn2c(C(=O)N[C@@H]3C[C@@H]3F)cnc12 (stereo partly drawn) [Example K231] | > 100 nM | < 1 nM | > 100 nM |
| CNc1cc(Nc2cccn(-c3cc(C(=O)NCCCCCCCCc4cccc5c4n(C)c(=O)n5C4CCC(=O)NC4=O)ccn3)c2=O)nn2c(C(=O)N[C@@H]3C[C@@H]3F)cnc12 (stereo partly drawn) [Example K232] | > 100 nM | 1 to 10 nM | > 100 nM |
| CNc1cc(Nc2cccn(-c3cc(C(=O)NCCCCCCCCCCc4ccc5c(c4)n(C)c(=O)n5C4CCC(=O)NC4=O)ccn3)c2=O)nn2c(C(=O)N[C@@H]3C[C@@H]3F)cnc12 (stereo partly drawn) [Example K233] | 1 to 10 nM | 1 to 10 nM | > 100 nM |
| CNc1cc(Nc2cccn(-c3cc(C(=O)NCCCCCCCCCCc4cccc5c4n(C)c(=O)n5C4CCC(=O)NC4=O)ccn3)c2=O)nn2c(C(=O)N[C@@H]3C[C@@H]3F)cnc12 (stereo partly drawn) [Example K234] | > 100 nM | > 100 nM | > 100 nM |
| CNc1cc(Nc2cccn(-c3cccc(C(=O)NCCOCCOCCc4ccc5c(c4)n(C)c(=O)n5C4CCC(=O)NC4=O)c3)c2=O)nn2c(C(=O)N[C@@H]3C[C@@H]3F)cnc12 (stereo partly drawn) [Example K235] | > 100 nM | 1 to 10 nM | > 100 nM |
| CNc1cc(Nc2cccn(-c3cccc(C(=O)NCCOCCOCCc4cccc5c4n(C)c(=O)n5C4CCC(=O)NC4=O)c3)c2=O)nn2c(C(=O)N[C@@H]3C[C@@H]3F)cnc12 (stereo partly drawn) [Example K236] | > 100 nM | 1 to 10 nM | > 100 nM |

| SMILES | DC50 (TYK2 [1]) | DC50 (TYK2 [2]) | DC50 (TYK2 [3]) |
| --- | --- | --- | --- |
| CNc1cc(Nc2cccn(-c3cc(C(=O)NCCOCCOCCc4ccc5c(c4)n(C)c(=O)n5C4CCC(=O)NC4=O)ccn3)c2=O)nn2c(C(=O)N[C@@H]3C[C@@H]3F)cnc12 (stereo partly drawn) [Example K237] | > 100 nM | > 100 nM | > 100 nM |
| CNc1cc(Nc2cccn(-c3cc(C(=O)NCCOCCOCCc4cccc5c4n(C)c(=O)n5C4CCC(=O)NC4=O)ccn3)c2=O)nn2c(C(=O)N[C@@H]3C[C@@H]3F)cnc12 (stereo partly drawn) [Example K238] | > 100 nM | > 100 nM | > 100 nM |
| CNc1cc(Nc2cccn(-c3cccc(C(=O)NCCOCCOCCOCCOCCc4ccc5c(c4)n(C)c(=O)n5C4CCC(=O)NC4=O)c3)c2=O)nn2c(C(=O)N[C@@H]3C[C@@H]3F)cnc12 (stereo partly drawn) [Example K239] | > 100 nM | > 100 nM | > 100 nM |
| CNc1cc(Nc2cccn(-c3cccc(C(=O)NCCOCCOCCOCCOCCc4cccc5c4n(C)c(=O)n5C4CCC(=O)NC4=O)c3)c2=O)nn2c(C(=O)N[C@@H]3C[C@@H]3F)cnc12 (stereo partly drawn) [Example K240] | > 100 nM | > 100 nM | > 100 nM |
| CNc1cc(Nc2cccn(-c3cc(C(=O)NCCOCCOCCOCCOCCc4ccc5c(c4)n(C)c(=O)n5C4CCC(=O)NC4=O)ccn3)c2=O)nn2c(C(=O)N[C@@H]3C[C@@H]3F)cnc12 (stereo partly drawn) [Example K241] | > 100 nM | > 100 nM | > 100 nM |
| CNc1cc(Nc2cccn(-c3cc(C(=O)NCCOCCOCCOCCOCCc4cccc5c4n(C)c(=O)n5C4CCC(=O)NC4=O)ccn3)c2=O)nn2c(C(=O)N[C@@H]3C[C@@H]3F)cnc12 (stereo partly drawn) [Example K242] | > 100 nM | > 100 nM | > 100 nM |
| CNc1cc(Nc2cccn(-c3cccc(C(=O)NCCOCCOCCOCCOCCOCCOCCc4ccc5c(c4)n(C)c(=O)n5C4CCC(=O)NC4=O)c3)c2=O)nn2c(C(=O)N[C@@H]3C[C@@H]3F)cnc12 (stereo partly drawn) [Example K243] | > 100 nM | > 100 nM | > 100 nM |
| CNc1cc(Nc2cccn(-c3cc(C(=O)NCCOCCOCCOCCOCCOCCOCCc4cccc5c4n(C)c(=O)n5C4CCC(=O)NC4=O)ccn3)c2=O)nn2c(C(=O)N[C@@H]3C[C@@H]3F)cnc12 (stereo partly drawn) [Example K244] | > 100 nM | > 100 nM | > 100 nM |
| CNc1cc(Nc2cccn(-c3cc(C(=O)NCCOCCOCCOCCOCCOCCOCCc4ccc5c(c4)n(C)c(=O)n5C4CCC(=O)NC4=O)ccn3)c2=O)nn2c(C(=O)N[C@@H]3C[C@@H]3F)cnc12 (stereo partly drawn) [Example K245] | > 100 nM | > 100 nM | > 100 nM |
| CNc1cc(Nc2cccc(C(=O)NCCCCc3ccc4c(c3)n(C)c(=O)n4C3CCC(=O)NC3=O)c2)nn2c(C(=O)N[C@@H]3C[C@@H]3F)cnc12 (stereo partly drawn) [Example K247] | > 100 nM | > 100 nM | > 100 nM |
| CNc1cc(Nc2cccc(C(=O)NCCCCc3cccc4c3n(C)c(=O)n4C3CCC(=O)NC3=O)c2)nn2c(C(=O)N[C@@H]3C[C@@H]3F)cnc12 (stereo partly drawn) [Example K248] | > 100 nM | > 100 nM | > 100 nM |
| CNc1cc(Nc2cccc(C(=O)NCCCCCCc3ccc4c(c3)n(C)c(=O)n4C3CCC(=O)NC3=O)c2)nn2c(C(=O)N[C@@H]3C[C@@H]3F)cnc12 (stereo partly drawn) [Example K249] | > 100 nM | > 100 nM | > 100 nM |
| CNc1cc(Nc2cccc(C(=O)NCCCCCCc3cccc4c3n(C)c(=O)n4C3CCC(=O)NC3=O)c2)nn2c(C(=O)N[C@@H]3C[C@@H]3F)cnc12 (stereo partly drawn) [Example K250] | > 100 nM | < 1 nM | > 100 nM |
| CNc1cc(Nc2cccc(C(=O)NCCCCCCCCc3ccc4c(c3)n(C)c(=O)n4C3CCC(=O)NC3=O)c2)nn2c(C(=O)N[C@@H]3C[C@@H]3F)cnc12 (stereo partly drawn) [Example K251] | > 100 nM | < 1 nM | > 100 nM |
| CNc1cc(Nc2ccccc2C(=O)NCCCCc2ccc3c(c2)n(C)c(=O)n3C2CCC(=O)NC2=O)nn2c(C(=O)N[C@@H]3C[C@@H]3F)cnc12 (stereo partly drawn) [Example K252] | > 100 nM | > 100 nM | > 100 nM |
| CNc1cc(Nc2ccccc2C(=O)NCCCCc2cccc3c2n(C)c(=O)n3C2CCC(=O)NC2=O)nn2c(C(=O)N[C@@H]3C[C@@H]3F)cnc12 (stereo partly drawn) [Example K253] | > 100 nM | > 100 nM | > 100 nM |
| CNc1cc(Nc2cccc(C(=O)NCCCCCCCCc3cccc4c3n(C)c(=O)n4C3CCC(=O)NC3=O)c2)nn2c(C(=O)N[C@@H]3C[C@@H]3F)cnc12 (stereo partly drawn) [Example K254] | > 100 nM | 1 to 10 nM | > 100 nM |
| CNc1cc(Nc2ccccc2C(=O)NCCCCCCc2ccc3c(c2)n(C)c(=O)n3C2CCC(=O)NC2=O)nn2c(C(=O)N[C@@H]3C[C@@H]3F)cnc12 (stereo partly drawn) [Example K255] | > 100 nM | < 1 nM | > 100 nM |
